Measurements: patent publication US20240016762A1, “DUAL ANALGESIC/ANTI-INFLAMMATORY COMPOSITIONS COMPRISING CB2 RECEPTOR AGONISTS, COMBINATIONS, AND METHODS OF USE THEREOF” (Altus Formulation lnc., priority 2020, published 2024)

What was measured:
CB2 receptor = CB2 receptor (Homo sapiens, UniProt P34972); settings: Smoum et al. (2015); cited from earlier work
[1] = tested on: corneal cauterization and capsaicin challenge (corneal pain); settings: cited from earlier work; for ED50: Thapa et al (2018)
[2] = tested on: plantar incision in the hind paw (post-operative incisional pain); assay: Rat postoperative incisional (plantar incision) pain model, von Frey withdrawal threshold; settings: iv; for ED50: Rattus norvegicus, read-out: ED50 (median effective dose)
Experimental: The model developed was based on that described by Labuda et al. (supra). […] All test articles were administered intravenously via the tail vein as a single bolus.
Male Sprague Dawley rats (Charles River, St-Constant, Qc, Canada), were purchased and housed in auto-ventilated cages in a climate-controlled room on a 12-hour light/dark cycle. The animals were allowed free access to food pellets and water and weighed 200-225 g at the time of the testing.
Post-operative incisional pain was induced via a 1 cm plantar incision in the hind paw. Briefly, under deep anesthesia with isoflurane the plantar aspect of the hind paw was cleaned and sterilized using a 10% povidone-iodine solution after which a 1 cm longitudinal incision was made with a number 11 blade. The incision penetrated through the skin and fascia of the plantar aspect of the foot. The plantaris muscle was also elevated and incised longitudinally, the muscle origin remaining intact. After hemostatis with gentle pressure, the skin was closed with 2 mattress sutures of 5-0 nylon and the wound site covered with an antibacterial ointment. The rats were then placed in clear Plexiglas cages with plastic grid floors (8×8 mm) and allowed to acclimate.
The pain response was evaluated using the von Frey mechanical stimulation test employing von Frey filaments applied vertically to an area adjacent to the wound. […] The resistance to bending (reflective of the applied pressure) of the filament causing a withdrawal response was then recorded as the withdrawal threshold. […] After each filament application, animals were given a 5 minute test-free period after which the test was repeated the lowest force required for a withdrawal response from the 2 tests being recorded as the withdrawal threshold (WT). […]
The paw withdrawal threshold was again measured at 0.25, 1, 2, 3, 4, 5, 6, 7, 8 hours post treatment administration animal responses being plotted as withdrawal response/time curves for each dose given as before.

CB2 receptor, sequence (P34972 whole entry): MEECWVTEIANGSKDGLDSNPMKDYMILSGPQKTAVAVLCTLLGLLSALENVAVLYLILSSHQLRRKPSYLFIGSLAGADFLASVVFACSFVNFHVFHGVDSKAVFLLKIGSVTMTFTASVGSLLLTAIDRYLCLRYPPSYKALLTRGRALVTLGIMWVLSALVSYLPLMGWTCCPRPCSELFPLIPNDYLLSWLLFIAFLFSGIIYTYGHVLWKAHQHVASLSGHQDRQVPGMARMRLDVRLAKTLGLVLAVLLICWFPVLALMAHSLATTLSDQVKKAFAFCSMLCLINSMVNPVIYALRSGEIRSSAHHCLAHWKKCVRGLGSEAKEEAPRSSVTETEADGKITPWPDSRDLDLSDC

| Compound | ED50 [1] | ED50 [2] | also measured |
| --- | --- | --- | --- |
| CCCCCCC(C)(C)c1cc(OC)c([C@@H]2C=C(CO)[C@@H]3C[C@H]2C3(C)C)c(OC)c1 (single isomer, unassigned) [Batch E2] | – | – | Affinity for CB2 receptor relative to E1 (CB2 receptor): lower affinity for CB2 receptor than E1 |
| CCCCCc1cc(O)c2c(c1)OC(C)(C)[C@@H]1CC=C(C)C[C@@H]21 [A8 THC] | 1% | – | – |
| C=C(C)[C@@H]1CCC(C)=C[C@H]1c1c(O)cc(CCCCC)cc1O [CBD] | 5% | – | – |
| CCCCCCC(C)(C)c1cc(OC)c([C@@H]2C=C(CO)[C@@H]3C[C@H]2C3(C)C)c(OC)c1 [HU-308] | – | – | Pain score ([1]; 1.5% solution in soybean oil, Thapa et al. (2018)): 17; Analgesic effect ([1]; doses lower than 1.5%, Thapa et al. (2018)): failed to generate an analgesic effect |
| O=C(c1ccccc1)c1ccc2n1CCC2C(=O)O (centres unmarked) [Ketorolac, ketorolac] | – | 23.1 mg/kg | Dose/response relationship of AUC0.25-8 hr [2]: clear dose response effect |
| Cc1ccc(-c2cc(C(F)(F)F)nn2-c2ccc(S(N)(=O)=O)cc2)cc1 [celecoxib] | – | 22.3 mg/kg | – |
